From patent US12023385B2, “Tunable endogenous protein degradation with heterobifunctional compounds” (DANA-FARBER CANCER INSTITUTE, INC., priority 2017, dated 2024)
Entries after “also recorded” stand apart in the source; their conditions may differ.

Legend:
FKBP* = target: T1, FKBP* (Homo sapiens, UniProt P62942, F37V); experiment: Immunoblot of FKBP* degradation in 293FT cells (CRBN-WT or CRBN−/−); assay type: cell-based; details: 4 hours
T1 construct: HA; expressed in transfected cells; host or cells: 293FT cells (CRBN-WT or CRBN-/-)
Experimental: (§1) The dTAG is predicated on the selectivity of FKBP* specific ligands over endogenous, wild type FKBP. In 293T cells expressing wild type FKBP12 or FKBP*, dFKBP7 induces targeted degradation only in FKBP* expressing cells. An immunoblot of cells treated with heterobifunctional compounds described in the present invention was performed. 293FT cells (CRBN-WT or CRBN−/−) expressing either HA-tagged FKBP12WT or FKBP* were treated with indicated concentrations of dFKBP7 for 4 hours.
In 293T cells expressing wild type FKBP12 or FKBP*, treatment with dFKBP7 and dFKBP13 induces targeted degradation only in FKBP* expressing cells. Isogenic 293FT cells (CRBN-WT or CRBN−/−) were engineered to expressed either FKBP12WT or FKBP*. Cells were treated with 100 nM of either dFKBP7 or dFKBP13 for 4 hours before lysates were prepared for western immunoblot analysis.
In an effort to define the optimal concentration of dFKB13 heterobifunctional compound to induce degradation of FKBP*, degradation was measured upon treatment with increasing concentrations of dFKBP13. Isogenic 293FT cells (CRBN-WT or CRBN−/−) were engineered to expressed HA-tagged FKBP*. Cells were treated with the indicated dose of dFKBP13 for 4 hours before lysates were prepared for western immunoblot analysis.
To evaluate the kinetic control of targeted degradation FKBP*, dFKBP13 was administered by increased duration. […]

FKBP12WT = target: T2, FKBP12WT (Homo sapiens, UniProt P62942); experiment: Immunoblot of wild type FKBP12 in 293FT cells (selectivity control); assay type: cell-based; details: 4 hours
T2 construct: HA; expressed in transfected cells; host or cells: 293FT cells (CRBN-WT or CRBN-/-)
Experimental: as §1, with “In 293T cells expressing wild type FKBP12 or FKBP*, dFKBP7 induces targeted degradation only in FKBP* expressing cells.” left out
Isogenic 293FT cells (CRBN-WT or CRBN−/−) were engineered to expressed either FKBP12WT or FKBP*. Cells were treated with 100 nM of either dFKBP7 or dFKBP13 for 4 hours before lysates were prepared for western immunoblot analysis.

FKBP* fused to Nluc = target: T3, FKBP* fused to Nluc (Homo sapiens, UniProt P62942, F37V); experiment: Nluc/Fluc luciferase ratio assay of FKBP* degradation in 293FT cells; assay type: cell-based; details: wild type or CRBN−/− 293FT cells, indicated concentrations, 4 hours
T3 construct: Nluc (nano luciferase) fusion partner; expressed in transfected cells; host or cells: 293FT cells (wild type or CRBN-/-)
Experimental: In an effort to identify potent and selective dFKPB heterobifunctional compounds, high throughput measurements of targeted FKBP* degradation were measured by surrogate levels of luciferase. Here, FKBP* is exogenously expressed as a multicistronic transcript with two types of luciferase: nano luciferase (NLuc) and firefly luciferase (FLuc) that allow for cell normalized quantification of FKBP* protein levels. Degradation of FKBP* is measured as a signal ration (Nluc/Fluc) in wild type (FIG. 4A) or CRBN −/− (FIG. 4B) 293FT cells treated with indicated concentrations of dFKBPs for 4 hours.

FKBP*-KRASG12V = experiment: Immunoblot of FKBP*-KRASG12V (dTAG-KRAS) degradation in NIH3T3 cells; assay type: cell-based
Experimental: (§2) Cells were treated with 500 nM dFKBP7 for the indicated time. Cells were harvested and immunoblotted to measure degradation of FKBP*-KRAS and downstream surrogates of KRAS signaling (e.g. pMEK and pAKT).
(§3) Western blotting of NIH3T3 cells expressing dTAG-KRASG12V were treated with 1 μM of the indicated dFKBP heterobifunctional compounds for 24 hours. Cells were harvested and immunoblotted to measure degradation of FKBP*-KRAS and downstream surrogates of KRAS signaling (e.g. pMEK and pAKT).
(§4) Western blotting of NIH3T3 cells expressing FKBP* fused to the N-terminus of KRAS treated with the indicated concentrations of dFKBP13 for 24 hours. Cells were harvested and immunoblotted to measure degradation of FKBP*-KRAS and downstream surrogates of KRAS signaling (e.g. pMEK and pAKT).
(§5) To evaluate the kinetic control of targeted degradation of dTAG-KRAS, dFKBP13 was administered by increased duration. Western blotting of NIH3T3 cells expressing FKBP* fused to the N-terminus of KRAS treated with 1 μM dFKBP13 for the indicated time. Cells were harvested and immunoblotted to measure degradation of FKBP*-KRAS and downstream surrogates of KRAS signaling (e.g. pMEK and pAKT).
NIH3T3 cells (CRBN-WT) were engineered to express dTAG-KRASG12V. […]

[1] = test system: KRAS signaling (pMEK and pAKT); experiment: Immunoblot of downstream surrogates of KRAS signaling in NIH3T3 cells expressing dTAG-KRAS; assay type: cell-based
Experimental: as §2
as §3, with “In an effort to identify the best performing dFKBP molecule, dTAG-KRAS degradation was profiled across a series of dFKBP molecules. Western” for “Western”
as §4, §5
The dFKBP13 heterobifunctional compound potently degrades dTAG-KRAS mutant alleles. […]

[2] = test system: NIH3T3 cells expressing dTAG-KRASG12V; experiment: Propidium iodide cell cycle analysis of NIH3T3 cells expressing dTAG-KRASG12V; assay type: cell-based; details: 48 hours
Experimental: NIH3T3 cells were engineered to express dTAG-KRASG12V. NIH3T3 cells expressing dTAG-KRASG12V were treated with dFKBP7 and dFKBP13 for 48 hours to induce targeted dTAG-KRASG12V degradation. Fixed cells were stained with propidium iodide and cell cycle analysis was performed.

[3] = test system: indicated proteins fused to mutant FKBP* with an HA tag; experiment: Immunoblot of proteins fused to dTAG (FKBP*) in MV4;11 leukemia cells; details: indicated concentrations, 16 hours, western blot
Source text: To test the general utility of the dTAG technology across several protein types, the indicated proteins fused to the dTAG in MV4;11 leukemia cells were expressed.

[4] = 293FT CRBN-WT or CRBN−/−, indicated concentrations
[5] = isogenic 293FT CRBN-WT or CRBN−/−, 100 nM
[6] = NIH3T3 dTAG-KRASG12V, 1 μM, 24 hours

T1 sequence (P62942 whole entry F37V): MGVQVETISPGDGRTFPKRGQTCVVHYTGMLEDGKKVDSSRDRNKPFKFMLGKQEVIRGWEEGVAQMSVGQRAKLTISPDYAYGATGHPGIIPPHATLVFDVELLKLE
T2 sequence (P62942 whole entry): as the sequence (P62942 whole entry F37V) above, with V37F counted along it
T3 sequence (P62942 2-108 F37V): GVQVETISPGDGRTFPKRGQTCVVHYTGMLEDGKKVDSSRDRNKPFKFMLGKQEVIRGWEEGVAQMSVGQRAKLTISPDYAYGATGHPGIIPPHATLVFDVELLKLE
T3 sequence (Q96SW2 whole entry partner, the tested form may be a part): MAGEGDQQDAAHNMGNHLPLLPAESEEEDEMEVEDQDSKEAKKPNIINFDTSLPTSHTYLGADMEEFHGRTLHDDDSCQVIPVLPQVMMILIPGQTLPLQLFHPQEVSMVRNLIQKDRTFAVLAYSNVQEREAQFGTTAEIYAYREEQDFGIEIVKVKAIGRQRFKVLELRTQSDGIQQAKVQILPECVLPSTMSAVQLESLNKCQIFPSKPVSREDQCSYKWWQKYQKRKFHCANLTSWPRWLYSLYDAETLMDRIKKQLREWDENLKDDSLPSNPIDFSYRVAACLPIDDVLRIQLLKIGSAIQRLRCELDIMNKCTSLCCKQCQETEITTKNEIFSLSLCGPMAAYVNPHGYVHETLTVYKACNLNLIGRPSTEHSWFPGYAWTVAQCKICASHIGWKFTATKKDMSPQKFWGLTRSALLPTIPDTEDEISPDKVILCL
T3 sequence (Q16531 whole entry partner, the tested form may be a part): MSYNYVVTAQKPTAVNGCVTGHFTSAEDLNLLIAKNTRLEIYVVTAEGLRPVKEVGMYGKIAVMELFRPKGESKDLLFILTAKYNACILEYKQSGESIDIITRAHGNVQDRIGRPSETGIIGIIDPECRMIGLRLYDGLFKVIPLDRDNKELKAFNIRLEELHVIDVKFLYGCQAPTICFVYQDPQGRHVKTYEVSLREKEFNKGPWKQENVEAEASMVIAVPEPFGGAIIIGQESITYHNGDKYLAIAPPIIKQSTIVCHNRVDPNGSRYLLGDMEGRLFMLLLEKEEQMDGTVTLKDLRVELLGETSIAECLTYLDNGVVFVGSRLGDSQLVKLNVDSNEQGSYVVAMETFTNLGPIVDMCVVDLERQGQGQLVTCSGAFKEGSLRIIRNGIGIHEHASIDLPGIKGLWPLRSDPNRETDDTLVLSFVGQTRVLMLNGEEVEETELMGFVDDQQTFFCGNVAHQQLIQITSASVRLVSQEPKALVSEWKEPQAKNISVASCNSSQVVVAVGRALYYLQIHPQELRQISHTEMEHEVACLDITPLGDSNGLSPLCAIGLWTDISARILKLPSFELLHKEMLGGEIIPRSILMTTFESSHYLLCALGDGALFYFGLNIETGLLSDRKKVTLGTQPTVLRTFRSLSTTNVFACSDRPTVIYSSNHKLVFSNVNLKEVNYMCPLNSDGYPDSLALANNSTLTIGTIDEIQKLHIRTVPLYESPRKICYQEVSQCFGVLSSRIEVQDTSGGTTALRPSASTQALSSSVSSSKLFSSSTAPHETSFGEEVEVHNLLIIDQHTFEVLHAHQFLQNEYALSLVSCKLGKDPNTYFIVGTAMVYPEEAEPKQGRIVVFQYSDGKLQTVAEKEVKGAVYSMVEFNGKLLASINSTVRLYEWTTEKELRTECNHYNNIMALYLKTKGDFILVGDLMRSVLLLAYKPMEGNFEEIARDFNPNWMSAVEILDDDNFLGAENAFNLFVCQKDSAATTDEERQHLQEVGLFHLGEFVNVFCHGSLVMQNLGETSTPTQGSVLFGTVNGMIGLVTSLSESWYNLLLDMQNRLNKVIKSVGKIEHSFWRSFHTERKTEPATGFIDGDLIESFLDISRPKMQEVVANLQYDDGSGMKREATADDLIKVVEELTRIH

SMILES | degradation of HA-tagged FKBP* (FKBP*; [4]) | degradation of FKBP* (FKBP*; [5]) | degradation of HA-tagged FKBP12WT (FKBP12WT; [4]) | degradation of FKBP12WT or endogenous FKBP12 (FKBP12WT; [5]) | degradation of FKBP* as signal ratio (Nluc/Fluc) (FKBP* fused to Nluc) | degradation of N-terminal dTAG-KRAS (FKBP*-KRASG12V; NIH3T3, 500 nM, indicated time) | downstream p-AKT signal ([1]; NIH3T3 N-terminal dTAG-KRAS, 500 nM, indicated time) | cell cycle profile (S-phase entry) [2] | targeted degradation of proteins fused to dTAG [3] | degradation of FKBP*-KRAS (FKBP*-KRASG12V; [6]) | inhibition of downstream signaling (pMEK, pAKT) [1, 6]
CC[C@H](C(=O)N1CCCC[C@H]1C(=O)O[C@H](CCc1ccc(OC)c(OC)c1)c1cccc(OCC(=O)NCCCOCCOCCOCCCNC(=O)COc2cccc3c2C(=O)N(C2CCC(=O)NC2=O)C3=O)c1)c1cc(OC)c(OC)c(OC)c1 (some centres unmarked) [dFKBP7] | CRBN-dependent degradation of FKBP* | CRBN-dependent degradation of FKBP* | not FKBPWT | not FKBP12WT or endogenous FKBP12 | effectively degrade FKBP* in a cereblon dependent manner | potent degradation; also recorded: degraded | decrease in p-AKT signal | diminished S-phase entry | degradation was observed with nanomolar concentrations | – | –
CC[C@H](C(=O)N1CCCC[C@H]1C(=O)O[C@H](CCc1ccc(OC)c(OC)c1)c1cccc(OCC(=O)NCCCCCCCCNC(=O)COc2cccc3c2C(=O)N(C2CCC(=O)NC2=O)C3=O)c1)c1cc(OC)c(OC)c(OC)c1 (some centres unmarked) [dFKBP9] | – | – | – | – | – | – | – | – | – | potent degradation | inhibition of downstream signaling
